According to PubChem BioAssay (NCI):
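Protocol summary: plate cells (96-well), add compound at 5 concentrations, incubate 48 h, interpolate endpoints linearly. The concentration for 50% growth inhibition is given as GI50. The concentration for full growth arrest is given as TGI.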

Columns and labels:
Assay in all cases: NCI tumour cell line growth inhibition, 48 h; in the data active = GI50 below about 0.43 µM; inactive = the rest
[1] = tested on: SF-295 CNS
[2] = tested on: HOP-92 NSCLC
[3] = tested on: TK-10 renal
[4] = tested on: OVCAR-5 ovarian
[5] = tested on: SNB-75 CNS
[6] = tested on: CAKI-1 renal
[7] = tested on: HT29 colon
[8] = tested on: MALME-3M melanoma
[9] = tested on: K-562 leukemia
[10] = tested on: A549 NSCLC
[11] = tested on: OVCAR-4 ovarian
[12] = tested on: U251 CNS
[13] = tested on: UACC-257 melanoma
[14] = tested on: MDA-MB-231 breast
[15] = tested on: MDA-MB-435
[16] = tested on: NCI-H23 lung
[17] = tested on: SK-MEL-5 melanoma
[18] = tested on: PC-3 prostate
[19] = tested on: OVCAR-3 ovarian
[20] = tested on: SF-539 CNS
[21] = tested on: T-47D breast
[22] = tested on: A498 renal
[23] = tested on: CCRF-CEM leukemia
[24] = tested on: DU-145 prostate
[25] = tested on: SNB-19 CNS
[26] = tested on: HOP-62 NSCLC
[27] = tested on: NCI-H226 lung
[28] = tested on: SK-OV-3 ovarian
[29] = tested on: IGROV1 ovarian
[30] = tested on: COLO 205 colon
[31] = tested on: UO-31 renal
[32] = tested on: SW-620 colon
[33] = tested on: UACC-62 melanoma
[34] = tested on: HCT-116 colon
[35] = tested on: NCI-H522 lung
[36] = tested on: MCF7 breast
[37] = tested on: MOLT-4 leukemia
[38] = tested on: NCI-H460 lung
[39] = tested on: HCT-15 colon
[40] = tested on: SF-268 CNS
[41] = tested on: HL-60(TB) leukemia
[42] = tested on: NCI/ADR-RES ovarian
[43] = tested on: KM12 colon
[44] = tested on: OVCAR-8 ovarian
[45] = tested on: HS 578T breast
[46] = tested on: EKVX NSCLC
[47] = tested on: LOX IMVI melanoma
[48] = tested on: SK-MEL-2 melanoma
[49] = tested on: SR leukemia
[50] = tested on: RPMI-8226 leukemia
[51] = tested on: HCC-2998 colon
[52] = tested on: ACHN renal
[53] = tested on: BT-549 breast
[54] = tested on: 786-0 renal
[55] = tested on: M14 melanoma
[56] = tested on: SN12C renal
[57] = tested on: SK-MEL-28 melanoma
[58] = tested on: RXF 393 renal

CC[C@]1(O)CC2CN(CCc3c([nH]c4ccccc34)C(C(=O)OC)(c3cc4c(cc3OC)N(C=O)[C@H]3[C@@](O)(C(=O)OC)[C@H](OC(C)=O)[C@]5(CC)[C@@H]6C[C@@H]6CN6CC[C@]43[C@@H]65)C2)C1 (stereo partly specified)
13400 nM: TGI [5]
active: GI50 [1] < 3.25 nM | GI50 [2] < 3.25 nM | GI50 [3] < 3.25 nM | GI50 [4] < 3.25 nM | GI50 [5] < 3.25 nM | GI50 [6] 32.4 nM | GI50 [7] < 3.25 nM | GI50 [8] 104 nM | GI50 [9] < 3.25 nM | GI50 [10] < 3.25 nM | GI50 [11] < 3.25 nM | GI50 [12] < 3.25 nM | GI50 [13] < 3.25 nM | GI50 [14] < 3.25 nM | GI50 [15] < 3.25 nM | GI50 [16] < 3.25 nM | GI50 [17] < 3.25 nM | GI50 [18] < 3.25 nM | GI50 [19] < 3.25 nM | GI50 [20] < 3.25 nM | GI50 [21] 228 nM | GI50 [22] < 3.25 nM | GI50 [23] < 3.25 nM | GI50 [24] < 3.25 nM | GI50 [25] < 3.25 nM | GI50 [26] < 3.25 nM | GI50 [27] 245 nM | GI50 [28] < 3.25 nM | GI50 [29] < 3.25 nM | GI50 [30] < 3.25 nM | GI50 [31] 173 nM | GI50 [32] < 3.25 nM | GI50 [33] < 3.25 nM | GI50 [34] < 3.25 nM | GI50 [35] < 3.25 nM | GI50 [36] < 3.25 nM | GI50 [37] < 3.25 nM | GI50 [38] < 3.25 nM | GI50 [39] 36.5 nM | GI50 [40] < 3.25 nM | GI50 [41] < 3.25 nM | GI50 [42] 179 nM | GI50 [43] < 3.25 nM | GI50 [44] < 3.25 nM | GI50 [45] < 3.25 nM | GI50 [46] < 3.25 nM | GI50 [47] < 3.25 nM | GI50 [48] < 3.25 nM | GI50 [49] < 3.25 nM | GI50 [50] < 3.25 nM | GI50 [51] < 3.25 nM | GI50 [52] 13.9 nM | GI50 [53] < 3.25 nM | GI50 [54] < 3.25 nM | GI50 [55] < 3.25 nM | GI50 [56] < 3.25 nM
12200 nM: TGI [6]
247 nM: TGI [49]
1230 nM: TGI [42]
> 12300 nM: TGI [18]
15 nM: TGI [53]
3670 nM: TGI [48]
> 21000 nM: TGI [33]
3.52 nM: TGI [34]
57.9 nM: TGI [50]
> 13700 nM: TGI [26]
> 16300 nM: TGI [27]
155 nM: TGI [23]
6650 nM: TGI [54]
9230 nM: TGI [51]
> 19400 nM: TGI [31]
17900 nM: TGI [8]
191 nM: TGI [14]
> 11700 nM: TGI [36]
146 nM: TGI [12]
> 11200 nM: TGI [38]
7390 nM: TGI [40]
3.86 nM: TGI [43]
4840 nM: TGI [9]
> 30700 nM: TGI [10]
> 23500 nM: TGI [52]
> 32500 nM: TGI [4] | TGI [25] | TGI [32] | TGI [39] | TGI [45] | TGI [46] | TGI [56]
33 nM: TGI [7]
325 nM: TGI [1]
4.78 nM: TGI [55]
339 nM: TGI [37]
< 3.25 nM: TGI [15] | TGI [19] | TGI [20] | TGI [24] | TGI [28] | TGI [30] | TGI [35] | TGI [41]
12.1 nM: TGI [2]
4370 nM: TGI [13]
> 26000 nM: TGI [47]
> 18000 nM: TGI [29]
11.9 nM: TGI [17]
> 29900 nM: TGI [11]
17500 nM: TGI [3]
8.82 nM: TGI [22]

Nc1ncc(-c2ccc3ncnc(N4CCc5cc(F)c(Cl)cc54)c3c2)cc1C=O
3650 nM: TGI [3]
6970 nM: TGI [15]
active: GI50 [2] 149 nM | GI50 [3] 248 nM | GI50 [5] 191 nM | GI50 [22] 167 nM | GI50 [29] 314 nM | GI50 [31] 277 nM | GI50 [41] 403 nM | GI50 [45] 369 nM | GI50 [46] 371 nM
2770 nM: TGI [5]
> 26200 nM: TGI [6]
> 27900 nM: TGI [1]
inactive: GI50 [1] 1320 nM | GI50 [4] 867 nM | GI50 [57] 1610 nM | GI50 [6] 845 nM | GI50 [7] 1570 nM | GI50 [8] 1130 nM | GI50 [9] 2820 nM | GI50 [10] 949 nM | GI50 [11] 2980 nM | GI50 [12] 2700 nM | GI50 [13] 1640 nM | GI50 [14] 1800 nM | GI50 [15] 909 nM | GI50 [16] 2350 nM | GI50 [17] 1870 nM | GI50 [18] 824 nM | GI50 [19] 1660 nM | GI50 [20] 2380 nM | GI50 [21] 587 nM | GI50 [23] 2120 nM | GI50 [24] 936 nM | GI50 [25] 2280 nM | GI50 [26] 896 nM | GI50 [27] 861 nM | GI50 [28] 1040 nM | GI50 [58] 471 nM | GI50 [30] 1900 nM | GI50 [33] 574 nM | GI50 [34] 2290 nM | GI50 [35] 2170 nM | GI50 [36] 1700 nM | GI50 [37] 1010 nM | GI50 [38] 814 nM | GI50 [39] 2410 nM | GI50 [40] 1020 nM | GI50 [42] 2820 nM | GI50 [43] 2860 nM | GI50 [44] 2540 nM | GI50 [47] 2520 nM | GI50 [48] 1590 nM | GI50 [49] 2670 nM | GI50 [51] 2290 nM | GI50 [52] 638 nM | GI50 [53] 1310 nM | GI50 [54] 658 nM | GI50 [55] 1850 nM | GI50 [56] 1050 nM
6560 nM: TGI [37]
6420 nM: TGI [28]
3860 nM: TGI [41]
> 100000 nM: TGI [4] | TGI [57] | TGI [7] | TGI [8] | TGI [9] | TGI [11] | TGI [12] | TGI [13] | TGI [14] | TGI [16] | TGI [18] | TGI [19] | TGI [20] | TGI [21] | TGI [23] | TGI [24] | TGI [25] | TGI [26] | TGI [27] | TGI [30] | TGI [31] | TGI [34] | TGI [35] | TGI [36] | TGI [38] | TGI [39] | TGI [40] | TGI [42] | TGI [43] | TGI [44] | TGI [46] | TGI [47] | TGI [51] | TGI [52] | TGI [53] | TGI [54] | TGI [55] | TGI [56]
2140 nM: TGI [58]
3020 nM: TGI [33]
1460 nM: TGI [2]
4540 nM: TGI [17]
3060 nM: TGI [45]
12500 nM: TGI [10]
758 nM: TGI [22]
> 26000 nM: TGI [49]
2390 nM: TGI [29]
6050 nM: TGI [48]
